{Fluorescein} = fluorescein attached by a linker
Legend:
streptavidin [1] = biological target: T1, streptavidin (Streptomyces avidinii, UniProt P22629); assay: Inhibition of binding of the receptor agent to the probe ligand using unimolecular probe UP6-23B (Example 18); details: 12.5 pmol streptavidin, 50 pmol probe; background subtracted
T1 construct: purchased Pierce (IL, USA)
Method: Assay solutions for the inhibition test were prepared as follows. In each well of a 96 well PCR plate, 50 μL of 10 mM Tris, pH 8.5, 50 mM KCl, 2.5 mM MgCl2 containing 12.5 pmol of streptavidin and different amount of an inhibitor (biotin) was introduced and incubated for about 30 min at room temperature. About 50 pmol of the probe UP6-23B (SEQ ID NO: 141) was then added to each well and incubated for about 30 min at 60° C. before the fluorescence measurement.

[2] = test system: T2, PKC probe UP10-23PKC (SEQ ID NO: 165), peptide KRTLRRC conjugated to the UP10-23A pre-probe
T2 sequence: KRTLRRC

streptavidin [3] = biological target: T1, streptavidin; assay: Receptor-binding assay, temperature dependence of fluorescence signal of unimolecular probes (Examples 11-17); details: for relative increase of the fluorescence intensity (¼ molar equivalent of streptavidin divided by that without streptavidin): 25° C., 50 pmol probe
Method: In order to perform receptor-binding assay, about 50 pmol of each unimolecular probe was mixed with 0, ⅛, and ¼ molar equivalent of streptavidin (0, 6.25, 12.5 pmol, respectively) in 50 μL of pH 8.5 10 mM Tris containing 50 mM KCl, […] well of a 96 well PCR plate (Bio-Rad, CA, USA). Note that ¼ molar equivalent of streptavidine corresponds to 1 molar equivalent of the biotin binding site in streptavidin with respect to the amount of the unmolecular probe used because streptavidin has 4 biotin binding sites. The assay solutions were then incubated for about 30 min at 60° C. The temperature dependence of the fluorescence signal from each well was measured with an iCycler iQ real time PCR machine purchased from Bio-Rad (CA, USA) using the melting profile protocol.
The assay solutions for the unimolecular probes (50 pmol of each probe with 0, ⅛, and ¼ molar equivalent of streptavidin) were prepared in a 96 well PCR plates by the same procedure described in Example 11. As in Example 11, the temperature dependence of the fluorescence signal was measured with an iCycler iQ real time PCR machine.
(§1) Again, the assay solutions for the above unimolecular probes (50 pmol of each probe with 0, ⅛, and ¼ molar equivalent of streptavidin) were prepared in a 96 well PCR plates by the same procedure described in Example 11, and the temperature dependence of the fluorescence signal was measured with an iCycler iQ real time PCR machine.
as §1, with “above two” for “above”, “0” for “0, ⅛,”
Assay solutions for the above unimolecular probe (50 pmol of each probe with 0 and ¼ molar equivalent of streptavidin) were prepared in a 96 well PCR plates by the same procedure described in Example 11, and the temperature dependence of the fluorescence signal was measured.
Assay solutions for the above unimolecular probe (50 pmol of each probe with 0 and ¼ molar equivalent of streptavidin with total volume including the buffer solution being 50 μL) were prepared in a 96 well PCR plates using the following four buffer solutions: pH 6.0 10 mM MES containing 50 mM KCl, 2.5 mM MgCl2; pH 7.0 10 mM Tris containing 50 mM KCl, 2.5 mM MgCl2; pH 8.0 10 mM Tris containing 50 mM KCl, 2.5 mM MgCl2; and pH 9.0 10 mM Tris containing 50 mM KCl, […] The temperature dependence of the fluorescence signal from each well was measured with an iCycler iQ real time PCR machine.

streptavidin [4] = biological target: T1, streptavidin; assay: Unimolecular probe assay for streptavidin analysed by non-denaturing electrophoresis (Example 3); assay type: binding; details: in the presence of streptavidin; incubated in ice for an hour
Description: Two unimolecular affinity probes, UP1-34B (SEQ ID NO: 127) and UP2-6B/36B (SEQ ID NO: 128), having biotin as a probe ligand were used to detect a receptor agent, streptavidin (SA). The unimolecular affinity probe UP1 is depicted schematically in FIG. 18. UP1 has a biotin-coupled thymidine at the 34th position, and UP2 has two biotin-coupled thyrnidines at the 6th and 36th positions (see FIG. 23A for the structure of the biotin-coupled thymidine). Each unimolecular probe has an interactive label pair consisting of a fluorescer, fluorescein, and a quencher, DABCYL (4-(4′-dimethylaminophenylazo)benzoic acid), which are covalently linked to the 5′ and the 3′ terminus by a linker, respectively. The structures of the fluorescein and DABCYL with the linker are shown in FIGS. 23B and 23D, respectively. […] This causes decrease of the fluorescence intensity from the probe compared to the dissociated conformation in which the stem duplex is dissociated and thus the fluorescer moiety is located distal from the quencher moiety. […]
Assay solutions were prepared according to the compositions summarized in Table 6, incubated in ice for an hour, and analyzed by electrophoresis. […] Dissociation of the stem duplexes due to the destabilization effect caused by the binding of the receptor agent is manifested by the increased fluorescence. […]

streptavidin [5] = biological target: T1, streptavidin; assay: Immobilized trimolecular affinity probe assay for detecting streptavidin (Example 9); assay type: binding; details: upon addition of streptavidin, depending on amount added; CM3* fluorescence at 535 nm
Description: Two immobilized trimolecular affinity probes having a probe ligand (biotin) conjugated to the first complement sequence were used to detect streptavidin. One of the trimolecular probes used in this example is depicted schematically in FIG. 15. The first probe consists of an object oligonucleotide OB1-1B (SEQ ID NO: 135) comprising first and second object sequences, a first complement sequence CM2-4B (SEQ ID NO: 136) having a probe ligand, and a second complement sequence CM3* (SEQ ID NO: 131). The second probe consists of an object oligonucleotide OB1-1B (SEQ ID NO: 135), a first complement sequence CM1-4B (SEQ ID NO: 133) having a probe ligand, and a second complement sequence CM3* (SEQ ID NO: 131). The object oligonucleotide OB1-1B has a biotin covalently linked to the first nucleotide, adenosine in the 5′ end that is used to immobilize the object sequence (see FIG. 23E for the structure of the biotin-coupled abasic nucleotide). The second complement oligonucleotide CM3* has fluorescein as a fluorescent label at the 5′ terminal.
The object oligonucleotide having a biotin residue in the 5′ terminal was immobilized to microwell plate wells coated with streptavidin. […] Fluorescence from the second complement oligonucleotide CM3* from each well was then measured at 535 nm using a microwell plate reader (GENios, TECAN, USA).

[6] = pH 6.0, 7.0, 8.0, 9.0, without and with streptavidin

T1 sequence (P22629 25-183): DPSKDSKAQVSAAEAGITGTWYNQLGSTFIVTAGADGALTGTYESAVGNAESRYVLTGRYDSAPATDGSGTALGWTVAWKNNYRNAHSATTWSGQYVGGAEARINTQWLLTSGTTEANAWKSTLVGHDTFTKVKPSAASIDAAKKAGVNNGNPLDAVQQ

Q: `O=C(O)CCCC[C@@H]1SC[C@@H]2NC(=O)N[C@@H]21` [biotin] was tested. Which “fluorescence intensity of UP6-23B as a function of inhibitor concentration” value (streptavidin [1]) did it give?
A: decreases with increasing inhibitor concentration

Q: PKC (Protein Kinase C) was tested. Which “fluorescence signal of the PKC probe after the kinase reaction and addition of anti-phosphothreonine antibody” value [2] did it give?
A: a substantial increase of the fulorescence signal with respect to that measured with un-reacted PKC probe is observed in the absence of the inhibitor

Q: For “UP1-34B: unimolecular affinity probe (SEQ ID NO: 127), biotin-thymidine at 34th position, fluorescein/DABCYL, 6 bp stem (GCAGCCTAGGAAACACCAAAGATGATATTTGGCTGC; listed as DNA, chemistry not fully specified)”, which “melting temperature higher than that of the probe UP14-21B” value (streptavidin [3]; 6 bp stem duplex vs 4 bp stem duplex) is on record?
A: about 20 °C

Q: What about the “fluorescence in the high mass region of the gel” value (streptavidin [4]) of the same molecule?
A: strongly enhanced fluorescence

Q: For “UP2-6B/36B: unimolecular affinity probe (SEQ ID NO: 128), biotin-thymidines at 6th and 36th positions, fluorescein/DABCYL, 7 bp stem (GCAGCTCTAGGAAACACCAAAGATGATATTTGAGCTGC; listed as DNA, chemistry not fully specified)”, which “fluorescence in the high mass region of the gel” value (streptavidin [4]) is on record?
A: strongly enhanced fluorescence

Q: “UP6-23B: unimolecular probe (SEQ ID NO: 141), 15 nt loop, 5 bp stem, biotin, fluorescein/DABCYL (GCAGGATACTCATTACCATACCTGC; biotin, fluorescein and DABCYL, positions not given here, hairpin)” was tested. Which melting temperature (streptavidin [3]; absence of the receptor agent, 0 mM MgCl2) did it give?
A: about 38 °C

Q: What about the melting temperature (streptavidin [3]; absence of the receptor agent, 5 mM MgCl2) of the same molecule?
A: about 58 °C

Q: What about the “fluorescence intensity as a function of pH” value (streptavidin [3]; [6]) of the same molecule?
A: increases dramatically depending on the pH

Q: What about the “melting temperature as a function of pH” value (streptavidin [3]; [6]) of the same molecule?
A: increases with pH

Q: And the melting temperature (streptavidin [3]; presence of the receptor agent (¼ molar equivalent of streptavidin), 0 mM MgCl2)?
A: about 33 °C

Q: What about the melting temperature (streptavidin [3]; presence of the receptor agent (¼ molar equivalent of streptavidin), 5 mM MgCl2) of the same molecule?
A: about 45 °C

Q: “UP10-13B: unimolecular probe (SEQ ID NO: 155), biotin in loop, 8th nucleotide from both ends of the loop region (GCAGCATCCTCATTACCCTAGCTGC; biotin in loop, hairpin stem-loop, further chemistry not given here)” was tested. Which “response of the fluorescence signal of the unimolecular probe to addition of the receptor agent (conjugation position dependence)” value (streptavidin [3]; ¼ molar equivalent of streptavidin vs. none) did it give?
A: did not work properly as a unimolecular probe

Q: “UP14-21B: unimolecular probe (SEQ ID NO: 149), 4 bp stem duplex, biotin, fluorescein/DABCYL (GCAGATACTCATTACCATACTGC; biotin, fluorescein and DABCYL, positions not given here, hairpin)” was tested. Which “relative increase of the fluorescence signal, compared between the 4 bp and 6 bp stem probes” value (streptavidin [3]; upon addition of streptavidin) did it give?
A: larger

Q: “UP15-23B: unimolecular probe (SEQ ID NO: 150), stem and loop length as UP6-23B, different loop sequence with secondary 4 bp stem conformer (GCAGGATACTGCTTACCATACCTGC; biotin label, position not given here, hairpin)” was tested. Which “relative increase of the fluorescence intensity (¼ molar equivalent of streptavidin divided by that without streptavidin)” value (streptavidin [3]) did it give?
A: about 3

Q: With “UP16-23B: unimolecular probe (SEQ ID NO: 151), stem and loop length as UP6-23B, different loop sequence with secondary 4 bp stem conformer (GCAGGACTCTCATTACACTGCCTGC; listed as DNA, chemistry not fully specified)” as the molecule, how does the “relative increase of the fluorescence intensity (¼ molar equivalent of streptavidin divided by that without streptavidin)” value (streptavidin [3]) read?
A: about 1.5

B1: second probe: immobilized trimolecular affinity probe of Example 9: OB1-1B, CM1-4B and CM3* (nucleic acid)
chain 1: ATGGAAGTATATGGAAGTATATGGAAGTATTCGTGGGGTTTTGCAGTCGTAG
chain 2: GACTGCAAAACCCC
chain 3: CTACGACTGCAA
modifications: chain 1: DNA, backbone not given here; chain 2: DNA, backbone not given here; chain 3: DNA, 5' {Fluorescein}, backbone not given here; OB1-1B biotin at 5' first nucleotide, CM1-4B biotin ligand, further chemistry not fully specified
Q: B1 was tested. Which “increase of fluorescence intensity, normalized to intensity in the absence of the receptor agent” value (streptavidin [5]) did it give?
A: 2-3.5 fold

— patent US20050118603A1, “Target detection system having a conformationally sensitive probe comprising a nucleic acid based signal transducer” (Ahram Biosystems Inc., priority 2002, published 2005)
